Assay results from US20250228757A1, “SUNSCREEN COMPOUNDS AND FORMULATIONS” (Oregon State University, priority 2024, published 2025).
Entries after “also recorded” stand apart in the source; their conditions may differ. Where two headings read alike, the source gives them in different places.

What was measured:
[1] = Solubility; assay type: physicochemical
[2] = test system: human primary epidermal keratinocytes (HPEKs); experiment: UV protection CyQuant cell count assay (dose-response and time kinetics); assay type: cell-based; conditions: 10 mJ/cm^2 UVB
Experimental: (§1) Immortalized keratinocyte HaCaT cells (ATCC, Manassas, VA, USA) were cultured in DMEM supplemented with 5% fetal bovine serum. Human primary epidermal keratinocytes (HPEKs) (ATCC) were cultured in EpiLife medium (ThermoFisher Scientific) supplemented with Human Keratinocyte Growth Supplement (ThermoFisher Scientific). HPEKs were maintained below ten passages. Cell lines were incubated in a humidified environment at 37° C. with 5% CO2.
For UV protection dose-response assays, HaCaT cells were seeded 5000 cells/well into clear 96-well plates (Corning). After 24 h, cells were treated with MBITC or MBA at 0, 3.125, 6.25, 12.5, 25, or 50 µM and incubated for 12 h. Cells were washed in PBS and irradiated with 10 mJ/cm^2 UVB using a UV Transilluminator 2000. After irradiation, fresh media was added, cells incubated for 36 h, and viability was determined by MTS assay as before. HPEKs were seeded 5000 cells/well into black, opaque bottom 96-well plates (Greiner Bio-One, Monroe, NC, USA) and incubated for 48 h. […] The dose of UVB was quantified using an IL1400A NIST Traceable Photometer (International Light, Peabody, MA, USA). […] After 36 h, CYQUANT® (ThermoFisher Scientific) assays were performed per the manufacturer's instructions, and fluorescent signal read using a Synergy4® (Biotek, Winooski, VT) plate reader. […]

[3] = test system: human primary epidermal keratinocytes (HPEKs); experiment: Dose-response CellTiter-Glo viability assay without UVB; assay type: cell-based; conditions: 48 h, up to 50 μM, absence of UVB
Experimental: as §1
(§2) For viability studies, HaCaT cells were seeded 5000 cells/well in clear 96-well plates (Corning, Corning, NY, USA). After 24 h, cells were treated with MBITC or MBA at 0, 3.125, 6.25, 12.5, 25, or 50 μM and incubated with the compounds for 48 h. Viability was then determined by MTS assay using CellTiter 96® AQueous One Solution Cell Proliferation Assay (Promega Corporation, Madison, WI, USA). Absorption was measured using Cytation® 5.0 Imaging Reader (Agilent, Santa Clara, CA, USA). HPEKs were seeded 5000 cells/well into white, opaque bottom 96-well plates (Greiner Bio-One) and incubated for 48 h. HPEKs were then treated with ethanol vehicle control or a 5-point half-log serial dilution of MBA starting at 50 μM. After 48 h, CellTiter-Glo® (Promega Corporation, Madison, WI) viability assays were performed per the manufacturer's instructions, and luminescence was read using a Synergy4 (Biotek, Winooski, VT) plate reader.

[4] = UV spectra; assay type: physicochemical; conditions: UV spectrum
[5] = test system: p-γH2A.X in HPEKs; experiment: Immunoblotting for p-γH2A.X after UVB; assay type: cell-based, human; conditions: 5 mJ/cm^2 UVB; for p-γH2A.X reduction: 1 μM (lowest tested dose); for p-γH2A.X staining: 25 and 50 μM (higher concentrations)
Experimental: HPEKs were cultured to 80% confluence in 6-well plates and treated with ethanol vehicle control or MBA. Cells were then irradiated in the same manner as immunocytochemistry samples. After 36 h, cells were harvested by scraping into cold PBS, centrifuged, pellet resuspended in denaturing SDS lysis buffer, boiled, and sonicated as described previously (Carpenter et al., Mol Carcinog 2019, 58:1680-1690). Samples were normalized to protein content as determined by BCA Assay (ThermoFisher Scientific). SDS-PAGE was then performed using 10% gels and transferred to a 0.45 μm nitrocellulose membrane (GE Healthcare, Chicago, IL, USA). Blots were blocked for 1 h in 5% nonfat dry milk in TBS-T and incubated with α-p-γH2A.X antibody (1:1000, Cell Signaling Technology, Danvers, MA, USA) or Actin (1:2000, Bethyl Laboratories, Inc., Montgomery, TX, USA) in 5% bovine serum albumin in TBS-T overnight at 4° C. The next day, blots were incubated with HRP-conjugated Goat anti-rabbit IgG or Goat anti-mouse IgG secondary antibodies (1:2000, Calbiochem, San Diego, CA, USA) for 1 h. The immunoblots were developed using chemiluminescent reagents (GE Healthcare) and imaged with a MyECL imager (ThermoFisher Scientific).

[6] = test system: cyclobutane pyrimidine dimers (CPDs) in HPEKs; experiment: Immunocytochemistry for cyclobutane pyrimidine dimers after UVB; assay type: cell-based, human; conditions: 12 h treatment, 5 mJ/cm^2 UVB
Experimental: HPEKs were cultured to 80% confluence in 6-well plates containing gelatin-coated coverslips and treated with ethanol vehicle control or MBA. After 12 h, the conditioned cell culture medium was removed, retained, and PBS containing EtOH or MBA was added to each well. Plates were then irradiated with 5 mJ/cm^2 UVB, PBS removed, conditioned media re-added, and incubated for 24 h. Cells were then fixed in 75% methanol/25% acetic acid, washed with 70% EtOH, and DNA denatured in 70 mM NaOH (in 70% EtOH). Wells were then washed 3 times with PBS and denaturation quenched with 100 mM Tris —HCl (in 70% EtOH). Cells were then blocked with 10% normal goat serum (NGS) in PBS-T and incubated overnight at 4° C. with α-thymine dimer primary antibody (1:1000, Kamiya Bio-medical, Matsumoto, Nagano, Japan) in NGS blocking buffer. […] Corrected total cellular fluorescence (CTCF) was quantified using the ImageJ software package as described previously, except only nuclear CTCF for CPD staining was quantified and nuclei were selected for ROIs using manual thresholding for each field (Carpenter et al., J Invest Dermatol 2022, 142:1903-1911). For all quantifications, cells on the edges of each field were excluded.

[7] = UVB absorption assay; assay type: physicochemical; conditions: for UVB absorption: time needed to reach a 5 mJ/cm^2 dose: in ethanol, 1, 10, 25, 50 μM
Experimental: MBITC or MBA was diluted in ethanol at 0, 1, 10, 25, and 50 μM, added to separate wells of a 24-well plate (Corning, Corning, NY, USA), and irradiated with UVB light using a UV Transilluminator 2000 (Bio-Rad, Hercules, CA, USA) to reach 5 mJ/cm^2 or 10 mJ/cm^2. A Daavlin X-96 irradiance meter (Daavlin, Bryan, OH, USA) measured energy transmittance through the dish. Each well was separately irradiated, and the time was measured to reach the specified energy density.

[8] = test system: HaCaT cells; experiment: Dose-response MTS viability assay without UVB; assay type: cell-based, human; conditions: 48 h, 3.125-50 μM, absence of UVB irradiation
Experimental: as §1, §2

[9] = test system: HaCaT cells; experiment: UV protection dose-response MTS assay; assay type: cell-based, human
Experimental: as §1
For UV protection dose-response assays, HaCaT cells were seeded 5000 cells/well into clear 96-well plates (Corning). After 24 h, cells were treated with MBITC or MBA at 0, 3.125, 6.25, 12.5, 25, or 50 µM and incubated for 12 h. Cells were washed in PBS and irradiated with 10 mJ/cm^2 UVB using a UV Transilluminator 2000. After irradiation, fresh media was added, cells incubated for 36 h, and viability was determined by MTS assay as before. HPEKs were seeded 5000 cells/well into black, opaque bottom 96-well plates (Greiner Bio-One, Monroe, NC, USA) and incubated for 48 h. Afterward, cells were treated with vehicle control or a 10-point half-log serial dilution of MBITC or MBA starting at 50 μM and incubated for 12 h. Before irradiation, the conditioned cell culture medium was re-moved from each well, retained, and PBS containing the same dose of EtOH or the compounds was added to the wells. Cells were irradiated with a 10 mJ/cm^2 dose using UVB TL 20W/12 RS M3 lights (Philips, Amsterdam, Netherlands). The dose of UVB was quantified using an IL1400A NIST Traceable Photometer (International Light, Peabody, MA, USA). Following irradiation, the PBS was aspirated from the wells, and conditioned media was added. After 36 h, CYQUANT® (ThermoFisher Scientific) assays were performed per the manufacturer's instructions, and fluorescent signal read using a Synergy4® (Biotek, Winooski, VT) plate reader. Cell counts were extrapolated from a standard curve of fluorescent signal activity vs. HPEK cell counts. Time kinetics involved the same compound and UVB treatment scheme as before, but CYQUANT® assays were performed at 24, 48, 72, or 96 h post-UVB irradiation.

[10] = test system: human skin equivalents; conditions: Carpenter et al. 2018; cited from earlier work
[11] = test system: HPEKs; conditions: previous study, absence of UVB; cited from earlier work
[12] = HaCaT, 12 h treatment, 10 mJ/cm^2 UVB, MTS after 36 h

solubility in ethanol [1]	Structure (SMILES)	protective effect, time kinetics ([2]; incubation up to four days)	prevention of UV-induced loss in proliferation (dose-response) ([2]; 12 h treatment, CyQuant)	cytotoxicity (viability, CellTiter-Glo) [3]	λmax [4] [nm]	p-γH2A.X reduction [5]	p-γH2A.X staining [5]	intensity of the CPD staining (CTCF) [6]	total number of CPD+ cells vs vehicle control [6]	UVB absorption: time needed to reach a 5 mJ/cm^2 dose [7]	cytotoxicity (viability, MTS) [8]	cytotoxic effects in the presence of UVB light [9, 12]	UVB-induced DNA damage, proliferation, and matrix-metalloproteinase expression [10]	UVB absorption capacity, compared ([7]; time needed to reach 5 or 10 mJ/cm^2)	cytotoxic effects in HPEKs [11]	cytotoxic effects in the presence of UVB light [9]	protection from UVB-induced loss in proliferation [9, 12]
ethanol soluble	CCCCCCCCCCCCCC/C=C\CCCC(=O)NCc1cccc(OC)c1 [MBA, (Z)—N-(3-methoxybenzyl)eicos-5-enamide]	did not reveal a protective effect	had the same effect as in HaCaT cells	not cytotoxic at the tested doses	273	trend of reduced p-γH2A.X	lack of elevated p-γH2A.X	substantially decreased	small but significant difference	only showed similar activity at a single concentration of 25 μM	little to no effect	did not exhibit the same cytotoxic effects as the parental compound	–	–	–	–	–
–	COc1cccc(CN=C=S)c1 [MBITC, 3-methoxybenzyl isothiocyanate]	–	–	–	273	less reduction; also recorded: trend of reduced p-γH2A.X	trend of increased p-γH2A.X staining compared to MBA	–	–	sufficient to increase the time needed to reach a 5 mJ/cm^2 dose at every tested concentration except 50 μM, where the time significantly decreased	–	–	reduce	more UVB absorption capacity than MBA	exhibited cytotoxic effects	displayed cytotoxic effects in the presence of UVB light	did not reverse the loss of proliferation
–	COc1cccc(CCC#N)c1 [MPACN, 3-methoxybenzyl acetonitrile]	–	–	–	–	–	–	–	–	–	–	–	reduce	–	–	–	–
